Data on 2 molecules can be found in US20220220527A1, “METHOD FOR MEASURING THE ACTIVITY OF A CULTURE OF MICROALGAE” (TotalEnergies SE, priority 2019, published 2022).

The experiment concerns aerobic bacteria. Description: Dissolved oxygen measurement in an illuminated microalgae-bacteria culture sample with successive additions of substrate and inhibitor (Example 2, FIG. 4). Type of experiment: cell-based. The settings on record: culture of Nannochloropsis oculata sp. 0.3 g/L and aerobic bacteria 0.05 g/L. Here is the method: A sample of a culture comprising microalgae of the type Nannochloropsis oculata sp. in a concentration of 0.3 g/L. and aerobic bacteria in a concentration of 0.05 g/L was transferred from a bioreactor to a chamber having a volume of 300 mL and comprising a magnetic stirrer and a source for emitting light. The source for emitting light comprised light-emitting diode strings located around the chamber.
During the whole experiment, the chamber was provided with light. In other words, several illumination steps were carried out successively, in order to conduct, during each illumination step, the measurement of the dissolved oxygen present in the sample. This measurement was carried out with a Luminescent Dissolved Oxygen (LDO) sensor (HACH) inserted in the chamber. After each illumination step, the sample was returned to the bioreactor and replaced with a new sample.
More particularly, after point 11, a total amount of 70 mg/L of CuSO4 was added to the sample.

With `O=S(=O)([O-])[O-].[Cu+2]` [CuSO4], the “effect on the activity of bacteria (oxygen production rate of the sample)” value (successive additions 1 to 11, total 70 mg/L CuSO4 after point 11) is “increasing inhibitory effect”. On to `CCO` [ethanol], for which, for the setting “after each addition (1 to 11) of substrate”, the “effect on the activity of bacteria (dissolved oxygen concentration, oxygen consumption by respiration)” value was “increases the activity of bacteria”.
